Earlier results in patent US20190381137A1, “BOLAAMPHIPHILIC COMPOUNDS, COMPOSITIONS AND USES THEREOF” (Lauren Sciences LLC, priority 2012, published 2019).

Conditions: conjugate acid (protonated form) of the imidazole side chain

In the case of `N[C@@H](Cc1c[nH]cn1)C(=O)O` [histidine], the pKa is given as “approximately 6.0”.
